{"source": "patent US20230356105A1", "about": "“TETRAAZADODECANE BASED CHELATING AGENTS FOR SEPARATION OF RARE EARTH ELEMENTS AND METHOD THEREFOR” (Ustav Organicke Chemie a Biochemie AV CR V.V.I., priority 2020, published 2023)", "assay_type_in_all_cases": "physicochemical", "key": {"[1]": {"assay": "Separation of Nd/Pr/Tb/Dy mixture by precipitation using L5 (Example 21)", "details": "for precipitate after 20 hrs: dissolved to 500 μL; for precipitate after 20 hrs composition / solution after 20 hrs composition: percent molar", "description": "Stock solutions were pipetted into 4 mL glass vials to prepare reaction mixtures with concentrations as follows: • 1. 38.5 mM (1.1 eq) chelator L5 • 2. 35 mM (1 eq) total LnCl3 content (from a stock solution containing a mixture of Ln=Nd, Pr, Tb, and Dy, in a ratio of 3.3:1:1:1, Nd:Pr:Tb:Dy) • 3. 1750 mM (50 eq) MOPS pH=7\nThe total reaction volume was 3.2 mL. A PTFE-coated stir bar was added to this vial, and the vial was capped and stirred with the temperature maintained at 40° C. by use of an aluminium heating block on a magnetic stirrer. After 20 hours, a 500 μL aliquot of the reaction mixture was taken from the vial. This was centrifuged in a 2 mL plastic Eppendorf centrifuge vial, and the supernatant was carefully pipetted from this and transferred to a new set of tubes. The precipitate was dissolved by addition of 500 μL 1 M HCl, and the absolute concentration of Nd, Pr, Tb, and Dy in both the supernatants and precipitates was determined by ICP-OES.\nThe percent molar composition of each phase is also provided, showing the minimal selectivity in precipitation under these conditions."}, "[2]": {"assay": "Separation of Ho/Er mixture by repeated precipitation using L1 (Example 11)", "details": "for Precipitate concentration [mM] Ho: dissolved to 200 μL", "description": "Stock solutions were pipetted into round-bottom 2 mL Eppendorf tubes as follows: • 1. 10 μL 100 mM aqueous solution of HoCl3 • 2. 10 μL 100 mM aqueous solution of ErCl3 • 3. 20 μL 100 mM aqueous solution of compound L1. • 4. 60 μL 2 M MOPS buffer pH=7. • 5. 140 μL water.\nNine identical reaction mixtures were prepared and split into three groups: A, B, C. Each tube was equipped with one PTFE-coated magnetic stir bar and sealed, and the mixture was stirred on a magnetic stirrer for 24 hours at room temperature. The tubes were then centrifuged and the supernatants were carefully pipetted out and transferred to a new set of tubes. Precipitates from group A were dissolved by addition of 200 μL 0.1 M HCl. The concentrations of Ho and Er in the supernatants and in the re-dissolved precipitates from group A were determined by ICP-OES. Precipitates from groups B and C were further processed as follows: the precipitates were dissolved by addition of 100 μL 0.1 M HCl, and the pH of the solutions were then raised from 1 to 7 by addition of an equimolar amount of 0.2 M NaOH. The total volume was adjusted to 200 μL by addition of water. The prepared mixtures were subjected to a second round of precipitation and were stirred on a magnetic stirrer for 24 hours at room temperature. The tubes were again centrifuged and the supernatants were carefully pipetted out and transferred to a new set of tubes. Samples from group B were treated identically to the samples from group A previously, and the Ho and Er content in the supernatants and precipitates were determined by ICP-OES. Precipitates from group C were subjected to a third cycle of precipitation followed by Ho and Er content determination analogously to the procedures described above. The resulting absolute concentrations of both metals in the supernatants and precipitates, as well as calculated values of the separation factor Er/Ho according to the formula (concentration of Er in supernatant/concentration of Er in precipitate)/(concentration of Ho in supernatant/concentration of Ho in precipitate), are summarized in Table 5."}, "[3]": {"assay": "Separation of Ho/Er mixture using L1 with repeated dissolution of the precipitate with heat (Example 12)", "details": "for Precipitate concentration [mM] Ho: dissolved to 200 μL", "description": "The experiment was conducted according to Example 11), the difference being that instead of dissolving the precipitate in acid and neutralizing by addition of base, 200 μL of water were added to the precipitate and the suspension was stirred at 80° C. for 24 hours. Full dissolution of the precipitate was not achieved during this process, but a saturated solution was formed. After cooling to room temperature, the mixtures were processed as though the precipitation had occurred normally. The resulting absolute concentrations of both metals in the supernatants and precipitates, as well as calculated values of the separation factor Er/Ho according to the formula from Example 11) are summarized in Table 6. […] Repetition of the cycles in this experiment also led to a higher degree of enrichment for one of the rare-earth elements. The average separation factor value was 2.97."}, "[4]": {"details": "group A, 1st precipitation, mean"}}, "note": "Where “and” joins values, the source holds several entries; their conditions need not be identical. Identical values can stand only once."}
{"smiles": "O=C(O)CN1CCN(CC(=O)O)CCN(Cc2cccc3ccccc23)CCN(CC(=O)O)CC1", "note": "[L5, 2,2′,2″-(10-(naphthalene-1-ylmethyl)-1,4,7,10-tetraazacyklododekane-1,4,7-triyl)triacetic acid]", "values": [{"measurement": "solution after 20 hrs", "setting": "[1]; Ln=Dy", "value": 0.58, "unit": "mM"}, {"measurement": "precipitate after 20 hrs", "setting": "[1]; Ln=Dy", "value": 4.69, "unit": "mM"}, {"measurement": "precipitate after 20 hrs composition", "setting": "[1]; Ln=Dy", "value": 14.9, "unit": "%"}, {"measurement": "solution after 20 hrs composition", "setting": "[1]; Ln=Dy", "value": 17.1, "unit": "%"}, {"measurement": "solution after 20 hrs", "setting": "[1]; Ln=Nd", "value": 1.85, "unit": "mM"}, {"measurement": "precipitate after 20 hrs", "setting": "[1]; Ln=Nd", "value": 16.68, "unit": "mM"}, {"measurement": "precipitate after 20 hrs composition", "setting": "[1]; Ln=Nd", "value": 53.0, "unit": "%"}, {"measurement": "solution after 20 hrs composition", "setting": "[1]; Ln=Nd", "value": 54.3, "unit": "%"}, {"measurement": "solution after 20 hrs", "setting": "[1]; Ln=Pr", "value": 0.47, "unit": "mM"}, {"measurement": "precipitate after 20 hrs", "setting": "[1]; Ln=Pr", "value": 4.85, "unit": "mM"}, {"measurement": "precipitate after 20 hrs composition", "setting": "[1]; Ln=Pr", "value": 15.4, "unit": "%"}, {"measurement": "solution after 20 hrs composition", "setting": "[1]; Ln=Pr", "value": 13.9, "unit": "%"}, {"measurement": "solution after 20 hrs", "setting": "[1]; Ln=Tb", "value": 0.50, "unit": "mM"}, {"measurement": "precipitate after 20 hrs", "setting": "[1]; Ln=Tb", "value": 5.28, "unit": "mM"}, {"measurement": "precipitate after 20 hrs composition", "setting": "[1]; Ln=Tb", "value": 16.8, "unit": "%"}, {"measurement": "solution after 20 hrs composition", "setting": "[1]; Ln=Tb", "value": 14.7, "unit": "%"}]}
{"smiles": "O=C(O)CN1CCN(CC(=O)O)CCN(Cc2ccccc2)CCN(CC(=O)O)CC1", "note": "[L1, 2,2′,2″-(10-benzyl-1,4,7,10-tetraazacyclododecane-1,4,7-triyl)triacetic Acid]", "values": [{"measurement": "average of the separation factor values Er/Ho", "setting": "[2]; all Er/Ho mixtures", "value": 2.73}, {"measurement": "Separation factor Er/Ho", "setting": "[2]; group A, 1st precipitation", "value": "2.30 and 2.59 and 2.55"}, {"measurement": "Supernatant concentration [mM] Ho", "setting": "[2]; group A, 1st precipitation", "value": "0.44 mM and 0.40 mM and 0.46 mM"}, {"measurement": "Precipitate concentration [mM] Ho", "setting": "[2]; group A, 1st precipitation", "value": "4.72 mM and 4.31 mM and 4.29 mM"}, {"measurement": "Precipitate concentration [mM] Ho", "setting": "[2]; [4]", "value": 4.44, "unit": "mM"}, {"measurement": "Supernatant concentration [mM] Ho", "setting": "[2]; [4]", "value": 0.43, "unit": "mM"}, {"measurement": "Separation factor Er/Ho", "setting": "[2]; group B, 2nd precipitation", "value": "3.10 and 2.68 and 3.02"}, {"measurement": "Supernatant concentration [mM] Ho", "setting": "[2]; group B, 2nd precipitation", "value": "0.58 mM and 0.51 mM and 0.44 mM"}, {"measurement": "Precipitate concentration [mM] Ho", "setting": "[2]; group B, 2nd precipitation", "value": "4.07 mM and 4.24 mM and 4.20 mM"}, {"measurement": "Precipitate concentration [mM] Ho", "setting": "[2]; group B, 2nd precipitation, mean", "value": 4.17, "unit": "mM"}, {"measurement": "Separation factor Er/Ho", "setting": "[2]; group C, 3rd precipitation", "value": "2.97 and 2.30 and 3.06"}, {"measurement": "Precipitate concentration [mM] Ho", "setting": "[2]; group C, 3rd precipitation", "value": "3.23 mM and 2.65 mM"}, {"measurement": "Precipitate concentration [mM] Ho", "setting": "[2]; group C, 3rd precipitation, mean", "value": 3.04, "unit": "mM"}, {"measurement": "average separation factor value Er/Ho", "setting": "[3]; all samples", "value": 2.97}, {"measurement": "Separation factor Er/Ho", "setting": "[3]; group A, 1st cycle", "value": "2.89 and 2.84 and 3.04"}, {"measurement": "Supernatant concentration [mM] Ho", "setting": "[3]; group A, 1st cycle", "value": "0.36 mM and 0.33 mM"}, {"measurement": "Precipitate concentration [mM] Ho", "setting": "[3]; group A, 1st cycle", "value": "4.53 mM and 4.46 mM and 4.68 mM"}, {"measurement": "Precipitate concentration [mM] Ho", "setting": "[3]; group A, 1st cycle, mean", "value": 4.56, "unit": "mM"}, {"measurement": "Supernatant concentration [mM] Ho", "setting": "[3]; group A, 1st cycle, mean", "value": 0.35, "unit": "mM"}, {"measurement": "Separation factor Er/Ho", "setting": "[3]; group B, 2nd cycle", "value": "2.69 and 2.94 and 3.69"}, {"measurement": "Supernatant concentration [mM] Ho", "setting": "[3]; group B, 2nd cycle (water, 80° C., 24 hours)", "value": "0.27 mM and 0.32 mM and 0.25 mM"}, {"measurement": "Supernatant concentration [mM] Ho", "setting": "[3]; group B, 2nd cycle (water, 80° C., 24 hours), mean", "value": 0.28, "unit": "mM"}, {"measurement": "Precipitate concentration [mM] Ho", "setting": "[3]; group B, 2nd cycle", "value": "3.89 mM and 3.98 mM and 3.64 mM"}, {"measurement": "Precipitate concentration [mM] Ho", "setting": "[3]; group B, 2nd cycle, mean", "value": 3.84, "unit": "mM"}, {"measurement": "Separation factor Er/Ho", "setting": "[3]; group C, 3rd cycle", "value": "2.38 and 2.79 and 3.47"}, {"measurement": "Supernatant concentration [mM] Ho", "setting": "[3]; group C, 3rd cycle (water, 80° C., 24 hours)", "value": "0.39 mM and 0.37 mM and 0.27 mM"}, {"measurement": "Supernatant concentration [mM] Ho", "setting": "[3]; group C, 3rd cycle (water, 80° C., 24 hours), mean", "value": 0.34, "unit": "mM"}, {"measurement": "Precipitate concentration [mM] Ho", "setting": "[3]; group C, 3rd cycle", "value": "3.16 mM and 3.13 mM and 3.75 mM"}, {"measurement": "Precipitate concentration [mM] Ho", "setting": "[3]; group C, 3rd cycle, mean", "value": 3.35, "unit": "mM"}]}
